One data set concerns the target T1, human β3 (Homo sapiens, UniProt P13945).
T1 construct: And then full length of human β3 gene was cloned using this fragment as a probe; expressed in transfected cells; host or cells: CHO cells (Chinese hamster ovary), pcDNA3 vector
Nature of the data set: Human β3-agonist activity (cAMP in CHO cells transfected with human β3 gene). In kind it is cell-based. The conditions noted are these: for Emax: CHO, read-out: Intrinsic activity (%). The method, then: Human β3-agonist Activity
Human β3-agonist activity was examined using CHO cells (chinese hamster ovarian cells) to which pcDNA3 (in vitrogen) cells inserted human β3 gene was transfected. Human β3 fragment was obtained by PCR using human fat tissue cDNA (supplied from Clontech) with a β3 primer [Krief et al, J. Clin. Invest.
The cells were cultured in a HAM F-12 medium containing 10% of fetal bovine serum, 400 μg/ml of Geneticin (Gibco BRL). 100 U/ml penicillin and 100 μg/ml streptomycin. 5×10^5 cells were placed on a 6-well plate and cultured for 24 hours, after which the medium was changed to a HAM F-12 medium without serum and was kept for 2 hours. Each test compound was first dissolved in DMSO, and then diluted with a HAM F-12 medium containing 1 mM isobutylmethyl xanthine and 1 mM ascorbic acid. A 10-fold dilution in the range of 10^−5 to 10^−12 M was added into the cell.
After culturing for 30 minutes, culture medium was withdrawn, 0.5 ml of 1 N NaOH was added and was kept for 20 minutes. And then 0.5 ml of 1 N acetic acid was added with subsequent agitation and centrifugation. Finally the concentration of cAMP were analyzed using cAMP EIA KIT (Cayman). […] Isoprotelenol was purchased from Research Biochimicals International.

Data set [1] has as its system male ddy mice. As to the kind of experiment: Blood sugar decreasing effect in glucose-loaded mice. The conditions noted are these: intraperitoneal administration; glucose 2 g/kg s.c.; after one hour. The class given is in vivo. The method, then: Blood Sugar Decreasing Effect and Lipolytic Effect Male ddy mice (supplied from the firm Nippon Charles Liver) of 6 weeks age were subcutaneously administered with glucose in a dose of 2 g/kg. The animals were also treated with either one of test compounds via oral or intraperitoneal administration in a dose of 0.1 ml per 10 grams of body weight. After one hour, blood sample was taken from abdominal aorta, from which serum was separated and served as the sample. Blood Sugar Decreasing Effect The samples prepared as above were analyzed for the serum glucose concentration by Auto analyzer (SUPER Z of the firm M. C. Medical). For the analyzer kit, Glucose II HA TEST WAKO (of the firm Wako Pure Chemical) was used. % decrease in blood sugar=[(A−B)/(A−C)]×100 in which A represents the glucose concentration upon being loaded with glucose, B represents the glucose concentration after administration of the compound and C is the usual level of the glucose concentration. […] Therefore, it was proven that the compound according to the present invention is effective as a medicament for therapeutic and preventive treatment of diabetes.

For data set [2], the system named is male ddy mice. Nature of the data set: Lipolytic effect in mice (serum free fatty acid). In kind it is in vivo. As to the method: Blood Sugar Decreasing Effect and Lipolytic Effect Male ddy mice (supplied from the firm Nippon Charles Liver) of 6 weeks age were subcutaneously administered with glucose in a dose of 2 g/kg. The animals were also treated with either one of test compounds via oral or intraperitoneal administration in a dose of 0.1 ml per 10 grams of body weight. After one hour, blood sample was taken from abdominal aorta, from which serum was separated and served as the sample. Lipolytic Effect Amount of free fatty acid in the samples was determined using NEFA HA TEST WAKO (of the firm Wako Pure Chemical). […] Therefore, it was shown that they are useful as medicament for preventive and therapeutic treatment of hyperlipemia and for therapeutic treatment of obesity.

A further data set concerns canine adipocytes. Nature of the data set: Lipolytic activity in canine fatty cell (glycerol release). In kind it is cell-based, dogs. The conditions noted are these: Canis lupus familiaris, Adipocyte; for EC50: 1 h, glycerol release, canine adipocytes, read-out: ED50 (the source's name); for Emax: read-out: Intrinsic activity (%). The method, then: Lipolytic Activity in Canine Fatty Cell
Adipose tissues in the omentum were collected from dogs and minced and washed. Krebs-Ringer buffer solution containing 1 mg/ml Collagenase (Sigma) and 1% of bovine serum albumin was added in an amount of 3 ml per one gram of the tissue. These cells were then incubated at 37° C. for 30 minutes with shaking and then undigested tissues were removed with a nylon filter. The resulting adipocytes were washed four times with Krebs-Ringer buffer, and then the concentration of cells was diluted to 2×10^5/ml with Krebs-Ringer buffer solution containing 4% of bovine serum albumin. These cells were transferred to Eppendorf tubes each in an amount of 300 μl.
Each 300 μl of a culture medium containing the test compounds were added to these tubes and was held at 37° C. for 1 hour whith shaking. Stimulation was stoped by cooling with ice. After centrifugation, the adipocytes were taken off with an aspirator, whereupon the glycerol was determined using F-KIT GLTCEROL (Behringer-Manheim).

Data set [3] has as its system male ddy mice. Nature of the data set: Toxicity test in mice. The conditions noted are these: dose of 100 mg/kg; 8 mice. In kind it is in vivo. As to the method: The compounds of Examples 7 and 31 were administered to 6 week age male ddy mice (supplied from the firm Nippon Charles Liver) at a dose of 100 mg/kg.
Setting [4] is: cAMP, CHO cells with human β3, read-out: ED50 (the source's name).

Counter-ions that a name gives are not always drawn. Like-named read-outs stand apart in the source and are kept apart here.

T1 sequence (P13945 whole entry, the tested form may be a part): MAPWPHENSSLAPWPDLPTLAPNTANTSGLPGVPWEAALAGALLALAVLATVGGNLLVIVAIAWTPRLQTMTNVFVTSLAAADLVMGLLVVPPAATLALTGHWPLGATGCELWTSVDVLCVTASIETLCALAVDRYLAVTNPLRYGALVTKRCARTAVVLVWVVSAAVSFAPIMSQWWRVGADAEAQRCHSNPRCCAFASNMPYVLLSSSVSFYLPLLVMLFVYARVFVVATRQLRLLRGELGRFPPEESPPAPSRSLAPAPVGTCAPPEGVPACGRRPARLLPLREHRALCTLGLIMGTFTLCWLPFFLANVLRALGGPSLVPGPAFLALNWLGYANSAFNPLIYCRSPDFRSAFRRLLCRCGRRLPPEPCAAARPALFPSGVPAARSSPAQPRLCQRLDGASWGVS

Regarding `CS(=O)(=O)Nc1cc(C(O)CNCCOc2ccc3c(c2)[nH]c2ccccc23)ccc1O.Cl` (racemic) [Example 2, (±)-N-[5-[2-[2-(9H-Carbazol-2-yloxy)ethylamino]-1-hydroxyethyl]-2-hydroxyphenyl]methanesulfonamide Hydrochloride], the EC50 came to 0.18 nM on human β3 and 56 nM in the data set on canine adipocytes. The Emax on human β3 was 120%; in the data set with canine adipocytes it was 82%. Also, the “% decrease in blood sugar” value in the data set with male ddy mice [1] is 77.1%. The “increase of free fatty acid” value with male ddy mice [2] (intraperitoneal administration of 10 mg/kg) is 67.2%.

For the compound `CS(=O)(=O)Nc1cccc(C(O)CNCCOc2ccc3c(c2)[nH]c2ccccc23)c1.Cl` (racemic) [Example 7, (±)-N-[3-[2-[2-(9H-Carbazol-2-yloxy)ethylamino]-1-hydroxyethyl]phenyl]methanesulfonamide Hydrochloride], at human β3, the EC50 was 18 nM and the Emax amounted to 95%. The fatal cases result in the data set on male ddy mice [3] is reported as “no fatal case”. Further, the “increase of free fatty acid” value in the data set with male ddy mice [2] (oral administration of 100 mg/kg) worked out at 47.7%. Moreover, in the data set on canine adipocytes, the EC50 turned out to be 1200 nM and the Emax stood at 90%.

For the compound `CS(=O)(=O)Nc1cc(C(O)CNCCOc2ccc3c(c2)sc2ccccc23)ccc1O` (racemic) [Example 38, (±)-N-[5-[2-[2-(Dibenzothiophen-3-yloxy)ethylamino]-1-hydroxyethyl]-2-hydroxyphenyl]methanesulfonamide Hydrochloride], on human β3, the EC50 was 0.006 nM and the Emax turned out to be 76%. Further, in the data set with canine adipocytes, the EC50 was found to be 2.6 nM and the Emax amounted to 103%.

As for `CN(C)S(=O)(=O)Nc1cc(C(O)CNCCOc2ccc3c(c2)sc2ccccc23)ccc1O` (racemic) [Example 40, (±)-N′-[5-[2-[2-(Dibenzothiophen-3-yloxy)ethylamino]-1-hydroxyethyl]-2-hydroxyphenyl]-N, N-dimethylsulfamide Hydrochloride], the EC50 was determined as 200 nM on human β3 and 13 nM in the data set with canine adipocytes. In addition, the Emax at human β3 was found to be 97%; in the data set with canine adipocytes it was 92%.

For the compound `CS(=O)(=O)Nc1cccc(C(O)CNCCOc2ccc3c(c2)sc2ccccc23)c1` (racemic) [Example 41, (±)-N-[3-[2-[2-(Dibenzothiophen-3-yloxy)ethlamino]-1-hydroxyethyl]phenyl]methanesulfonamide Hydrochloride], the Emax is 63% at human β3 and 109% with canine adipocytes. The EC50 amounted to 600 nM on human β3 (setting [4]) and 240 nM with canine adipocytes.

Take `CN(C)S(=O)(=O)Nc1cc(C(O)CNCCOc2ccc3c(c2)oc2ccccc23)ccc1O` (racemic) [Example 43, (±)-N′-[5-[2-[2-(Dibenzofuran-3-yloxy)ethylamino]-1-hydroxyethyl]-2-hydroxyphenyl]-N,N-dimethylsulfamide Hydrochloride]: on human β3, the EC50 was found to be 85 nM and the Emax is 104%. Besides, in the data set on canine adipocytes, the EC50 worked out at 4 nM and the Emax was determined as 77%.

With `CC(=O)Nc1ccc2c(c1)Cc1cc(OCCNCC(O)c3ccc(O)c(NS(C)(=O)=O)c3)ccc1-2` (racemic) [Example 50, (±)-N-[5-[2-[2-(9H-7-Acetylaminofluoren-2-yloxy)ethylamino]-1-hydroxyethyl]-2-hydroxyphenyl]methanesulfonamide Hydrochloride], the Emax on human β3 came to 85%; in the data set on canine adipocytes, 112%. The EC50 on human β3 (setting [4]) was determined as 0.94 nM; in the data set on canine adipocytes, 0.19 nM.

Take `CS(=O)(=O)Nc1cc(C(O)CNCCOc2ccc3c(c2)Cc2cc(N)ccc2-3)ccc1O` (racemic) [Example 52, (±)-N-[5-[2-[2-(9H-7-Aminofluoren-2-yloxy)ethylamino]-1-hydroxyethyl]-2-hydroxyphenyl]methanesulfonamide Hydrochloride]: the Emax on human β3 worked out at 78%; with canine adipocytes, 100%. Also, the EC50 at human β3 (setting [4]) worked out at 2.6 nM; in the data set on canine adipocytes, 0.38 nM.

In the case of `CC(C)S(=O)(=O)Nc1cc(C(O)CNCCOc2ccc3c(c2)[nH]c2ccccc23)ccc1O` (racemic) [Example 54, (±)-N-[5-[2-[2-(9H-Carbazol-2-yloxy)ethylamino]-1-hydroxyethyl]-2-hydroxyphenyl]-2-propanesulfonamide Hydrochloride], on human β3, the EC50 was 8.4 nM and the Emax was determined as 109%. In the data set on canine adipocytes, the EC50 stood at 25 nM and the Emax is 118%.

Regarding `OCc1cc(C(O)CNCCOc2ccc3c(c2)[nH]c2ccccc23)ccc1O` (racemic) [Example 67, (±)-2-[N-[2-(9H-Carbazol-2-yloxy)ethyl]amino]-1-[4-hydroxy-3-(hydroxymethyl)phenyl]ethanol Hydrochloride], at human β3, the EC50 turned out to be 28 nM and the Emax amounted to 109%. Moreover, in the data set with canine adipocytes, the EC50 stood at 54 nM and the Emax was 94%.

`COC(CNCCOc1ccc2c(c1)[nH]c1ccccc12)c1ccc(N)c(NS(C)(=O)=O)c1` (racemic) [Example 92, (±)-N-[5-[2-[2-(9H-Carbazol-2-yloxy)ethylamino]-1-methoxyethyl]-2-aminophenyl]methanesulfonamide Hydrochloride]: at human β3, the EC50 was determined as 280 nM and the Emax worked out at 81%. For the same compound, in the data set with canine adipocytes, the EC50 is 1900 nM and the Emax is 126%.

For `O[C@@H](CNCCOc1ccc2c(c1)[nH]c1ccccc12)c1ccccc1` [Example 32, (R)-2-[N-[2-(9H-Carbazol-2-yloxy)ethyl]amino]-1-phenylethanol Hydrochloride], on human β3, the EC50 worked out at 1600 nM and the Emax turned out to be 98%. In the data set on canine adipocytes, the EC50 is 290 nM and the Emax worked out at 94%.

Regarding `CS(=O)(=O)Nc1cc([C@@H](O)CNCCOc2ccc3c(c2)oc2ccccc23)ccc1O` [Example 69, (R)-N-[5-[2-[2-(Dibenzofuran-3-yloxy)ethylamino]-1-hydroxyethyl]-2-hydroxyphenyl]methanesulfonamide Hydrochloride], on human β3, the EC50 amounted to 0.016 nM and the Emax was determined as 94%. Also, in the data set on canine adipocytes, the EC50 came to 0.65 nM and the Emax was found to be 107%.

For the compound `CC(=O)Nc1ccc2c(c1)Cc1cc(OCCNC[C@H](O)c3cccc(NS(C)(=O)=O)c3)ccc1-2` [Example 71, (R)-N-13-[2-[2-(9H-7-Acetylaminofluoren-2-yloxy)ethylamino]-1-hydroxyethyl]phenyl]methanesulfonamide Hydrochloride], the Emax at human β3 was 97%; in the data set with canine adipocytes, 88%. Further, the EC50 on human β3 (setting [4]) stood at 180 nM; in the data set with canine adipocytes, 110 nM.

On to `CS(=O)(=O)Nc1cc([C@@H](O)CNCCOc2ccc3c(c2)sc2ccccc23)ccc1O` [Example 72, (R)-N-[5-[2-[2-(Dibenzothiophen-3-yloxy)ethylamino]-1-hydroxyethyl]-2-hydroxyphenyl]methanesulfonamide Hydrochloride], for which, on human β3, the Emax worked out at 80%. In the data set with canine adipocytes, the EC50 worked out at 0.54 nM and the Emax was determined as 96%.

Values taken from patent US6545053B1, “Tricyclic compounds and drug compositions containing same” (Asahi Kasei Kogyo Kabushiki Kaisha, priority 1996, dated 2003).
